Experimental data taken from patent US6706663B2, “Herbicidal 3-heterocyclic substituted benzisothiazole and benzisoxazole compounds” (Wyeth, priority 2000, dated 2004).

Legend:
[1] = tested on: ABUTH (Abutilon theophrasti); test: Postemergence herbicidal evaluation; assay type: in vivo, Medic.
In short: (§1)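 Seedlings grown about two weeks in flats, sprayed, then kept under standard greenhouse care. Rated visually 4–5 weeks after treatment on a 0–9 scale (stand, vigour, malformation, size, chlorosis, overall appearance) relative to untreated control; repeat tests averaged.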

[2] = tested on: AMBEL (Ambrosia artemisifolia); test: Postemergence herbicidal evaluation; assay type: in vivo, L.
In short: as §1

[3] = tested on: CASOB (Cassia obtusifolia); test: Postemergence herbicidal evaluation; assay type: in vivo, L.
In short: as §1

[4] = tested on: CHEAL (Chenopodium album); test: Postemergence herbicidal evaluation; assay type: in vivo, L.
In short: as §1

[5] = tested on: IPOHE (Ipomoea hederacea); test: Postemergence herbicidal evaluation; assay type: in vivo, (L.) Jacq.
In short: as §1

[6] = tested on: GLXMAW (Soybean, Williams); test: Postemergence herbicidal evaluation; assay type: in vivo, Glycine max, (L.) Merr. cv Williams
In short: as §1

ORYSAT (Rice, Tebonnet) [7] = test: Postemergence herbicidal evaluation; assay type: in vivo, Oryza sativa, (L.) Tebonnet
In short: as §1

[8] = tested on: ABUTH (Abutilon theophrasti); test: Preemergence herbicidal evaluation; assay type: in vivo, Medic.; settings: preemergence, rated 4-5 weeks after treatment
[9] = tested on: AMBEL (Ambrosia artemisifolia); test: Preemergence herbicidal evaluation; assay type: in vivo, L.; settings: preemergence, rated 4-5 weeks after treatment
In short: (§2)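 Scores (0–9) reflect visual comparison with control plants for stand, vigor, malformation, size and chlorosis. Seeds in potting soil received a post-planting spray of compound in aqueous acetone and grew in a greenhouse until assessment 4–5 weeks later.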

[10] = tested on: CASOB (Cassia obtusifolia); test: Preemergence herbicidal evaluation; assay type: in vivo, L.; settings: preemergence, rated 4-5 weeks after treatment
In short: as §2

[11] = tested on: CHEAL (Chenopodium album); test: Preemergence herbicidal evaluation; assay type: in vivo, L.; settings: preemergence, rated 4-5 weeks after treatment
In short: as §2

[12] = tested on: IPOHE (Ipomoea hederacea); test: Preemergence herbicidal evaluation; assay type: in vivo, (L.) Jacq.; settings: preemergence, rated 4-5 weeks after treatment
[13] = tested on: ECHCG (Echinochloa crus-galli); test: Preemergence herbicidal evaluation; assay type: in vivo, (L.) Beau; settings: preemergence, rated 4-5 weeks after treatment
In short: as §2

SETVI (Setaria viridis) = test: Preemergence herbicidal evaluation; assay type: in vivo, (L.) Beau; settings: preemergence, rated 4-5 weeks after treatment
In short: as §2

[14] = tested on: GLXMAW (Soybean, Williams); test: Preemergence herbicidal evaluation; assay type: in vivo, Glycine max, (L.) Merr. cv Williams; settings: preemergence, rated 4-5 weeks after treatment
[15] = tested on: TRZAWR (Wheat, Winter, cv Riband); test: Preemergence herbicidal evaluation; assay type: in vivo, Triticum aestivum; settings: preemergence, rated 4-5 weeks after treatment
In short: as §2

ZEAMX (Corn, Field) = test: Preemergence herbicidal evaluation; assay type: in vivo, Zea mays, L.; settings: preemergence, rated 4-5 weeks after treatment
CYPIR (Cyperus iria) = test: Flooded paddy, preemergence weed control; assay type: in vivo; settings: rated 3-4 weeks after treatment, 0-9 rating scale
In short: (§3)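 Plants were established from seed or propagating organs in flooded silt loam, with the water surface held 1.5 to 3 cm above the soil for the entire experiment. Injury was assessed visually against a control and given a 0-9 score.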

[16] = tested on: MOOVA (Monochoria vaginalis); test: Flooded paddy, preemergence weed control; assay type: in vivo, Presl.; settings: rated 3-4 weeks after treatment, 0-9 rating scale
In short: as §3

ORYSAT (Rice, Tebonnet) [17] = test: Flooded paddy, post-transplant rice tolerance; assay type: in vivo, Oryza sativa, (L.) Tebonnet; settings: flooded paddy, post-transplant rice, rated 3-4 weeks after treatment, 0-9 rating scale
In short: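 Scores (0-9) reflect visual injury relative to untreated plants in flooded silt loam. Each pot held two transplanted ten-day-old seedlings under 1.5 to 3 cm standing water in the greenhouse.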

Structure (SMILES): Cc1csc(-c2nsc3ccc(-n4c(=O)cc(C(F)(F)F)n(C)c4=O)cc23)n1 [Compound 7, 1-methyl-3-[3-(4-methyl-2-thiazolyl)-1,2-benzisothiazol-5-yl]-6-(trifluoromethyl)uracil]
- Postemergence herbicidal rating, ABUTH ([1]; rate 0.0320 kg/ha): 9.0
- Postemergence herbicidal rating, ABUTH ([1]; rate 0.0620 kg/ha): 9.0
- Postemergence herbicidal rating, ABUTH ([1]; rate 0.1250 kg/ha): 9.0
- Postemergence herbicidal rating, AMBEL ([2]; rate 0.0320 kg/ha): 2.0
- Postemergence herbicidal rating, AMBEL ([2]; rate 0.0620 kg/ha): 4.0
- Postemergence herbicidal rating, AMBEL ([2]; rate 0.1250 kg/ha): 9.0
- Postemergence herbicidal rating, CASOB ([3]; rate 0.0320 kg/ha): 0.0
- Postemergence herbicidal rating, CASOB ([3]; rate 0.0620 kg/ha): 0.0
- Postemergence herbicidal rating, CASOB ([3]; rate 0.1250 kg/ha): 3.0
- Postemergence herbicidal rating, CHEAL ([4]; rate 0.0320 kg/ha): 4.0
- Postemergence herbicidal rating, CHEAL ([4]; rate 0.0620 kg/ha): 4.0
- Postemergence herbicidal rating, CHEAL ([4]; rate 0.1250 kg/ha): 9.0
- Postemergence herbicidal rating, IPOHE ([5]; rate 0.0320 kg/ha): 2.0
- Postemergence herbicidal rating, IPOHE ([5]; rate 0.0620 kg/ha): 9.0
- Postemergence herbicidal rating, IPOHE ([5]; rate 0.1250 kg/ha): 9.0
- Postemergence herbicidal rating, GLXMAW ([6]; rate 0.0320 kg/ha): 5.0
- Postemergence herbicidal rating, GLXMAW ([6]; rate 0.0620 kg/ha): 5.0
- Postemergence herbicidal rating, GLXMAW ([6]; rate 0.1250 kg/ha): 5.5
- Postemergence herbicidal rating, ORYSAT (ORYSAT (Rice, Tebonnet) [7]; rate 0.0320 kg/ha): 4.5
- Postemergence herbicidal rating, ORYSAT (ORYSAT (Rice, Tebonnet) [7]; rate 0.0620 kg/ha): 5.0
- Postemergence herbicidal rating, ORYSAT (ORYSAT (Rice, Tebonnet) [7]; rate 0.1250 kg/ha): 7.0
- ABUTH preemergence herbicidal rating ([8]; Rate 0.0620 kg/ha): 9.0
- ABUTH preemergence herbicidal rating ([8]; Rate 0.1250 kg/ha): 9.0
- ABUTH preemergence herbicidal rating ([8]; Rate 0.2500 kg/ha): 9.0
- AMBEL preemergence herbicidal rating ([9]; Rate 0.0620 kg/ha): 0.0
- AMBEL preemergence herbicidal rating ([9]; Rate 0.1250 kg/ha): 0.0
- AMBEL preemergence herbicidal rating ([9]; Rate 0.2500 kg/ha): 0.0
- CASOB preemergence herbicidal rating ([10]; Rate 0.0620 kg/ha): 0.0
- CASOB preemergence herbicidal rating ([10]; Rate 0.1250 kg/ha): 3.0
- CASOB preemergence herbicidal rating ([10]; Rate 0.2500 kg/ha): 9.0
- CHEAL preemergence herbicidal rating ([11]; Rate 0.0620 kg/ha): 9.0
- CHEAL preemergence herbicidal rating ([11]; Rate 0.1250 kg/ha): 9.0
- CHEAL preemergence herbicidal rating ([11]; Rate 0.2500 kg/ha): 9.0
- IPOHE preemergence herbicidal rating ([12]; Rate 0.0620 kg/ha): 0.0
- IPOHE preemergence herbicidal rating ([12]; Rate 0.1250 kg/ha): 0.0
- IPOHE preemergence herbicidal rating ([12]; Rate 0.2500 kg/ha): 9.0
- ECHCG preemergence herbicidal rating ([13]; Rate 0.0620 kg/ha): 0.0
- ECHCG preemergence herbicidal rating ([13]; Rate 0.1250 kg/ha): 3.0
- ECHCG preemergence herbicidal rating ([13]; Rate 0.2500 kg/ha): 3.0
- SETVI preemergence herbicidal rating (SETVI (Setaria viridis); Rate 0.0620 kg/ha): 9.0
- SETVI preemergence herbicidal rating (SETVI (Setaria viridis); Rate 0.1250 kg/ha): 9.0
- SETVI preemergence herbicidal rating (SETVI (Setaria viridis); Rate 0.2500 kg/ha): 9.0
- GLXMAW preemergence herbicidal rating ([14]; Rate 0.0620 kg/ha): 0.0
- GLXMAW preemergence herbicidal rating ([14]; Rate 0.1250 kg/ha): 0.0
- GLXMAW preemergence herbicidal rating ([14]; Rate 0.2500 kg/ha): 2.0
- TRZAWR preemergence herbicidal rating ([15]; Rate 0.0620 kg/ha): 0.0
- TRZAWR preemergence herbicidal rating ([15]; Rate 0.1250 kg/ha): 2.0
- TRZAWR preemergence herbicidal rating ([15]; Rate 0.2500 kg/ha): 2.0
- ZEAMX preemergence herbicidal rating (ZEAMX (Corn, Field); Rate 0.0620 kg/ha): 0.0
- ZEAMX preemergence herbicidal rating (ZEAMX (Corn, Field); Rate 0.1250 kg/ha): 4.0
- ZEAMX preemergence herbicidal rating (ZEAMX (Corn, Field); Rate 0.2500 kg/ha): 8.0
- herbicidal rating, CYPIR (CYPIR (Cyperus iria); rate 0.0080 kg/ha): 7.0
- herbicidal rating, CYPIR (CYPIR (Cyperus iria); rate 0.0320 kg/ha): 8.5
- herbicidal rating, CYPIR (CYPIR (Cyperus iria); rate 0.1250 kg/ha): 9.0
- herbicidal rating, MOOVA ([16]; rate 0.0080 kg/ha): 9.0
- herbicidal rating, MOOVA ([16]; rate 0.0320 kg/ha): 9.0
- herbicidal rating, MOOVA ([16]; rate 0.1250 kg/ha): 9.0
- herbicidal rating, ORYSAT (rice tolerance) (ORYSAT (Rice, Tebonnet) [17]; rate 0.0080 kg/ha): 3.0
- herbicidal rating, ORYSAT (rice tolerance) (ORYSAT (Rice, Tebonnet) [17]; rate 0.0320 kg/ha): 2.0
- herbicidal rating, ORYSAT (rice tolerance) (ORYSAT (Rice, Tebonnet) [17]; rate 0.1250 kg/ha): 5.0
